Measured values from patent US8536342B2, “Process for producing thiabenzoazulene-propionic acid derivative” (Nippon Zoki Pharmaceutical Co., Ltd., priority 2009, dated 2013).

Tests used:
intracerebral receptor = molecular target: T1, intracerebral receptor (Mus musculus, UniProt P70174); assay: intracerebral receptor binding test by oral administration to mice; type: in vivo
T1 construct: from tissue; host or cells: mouse brain

histamine H1 receptor = histamine H1 receptor (Homo sapiens, UniProt P35367); assay: antagonistic action to histamine H1 receptor
Sequence of histamine H1 receptor (P35367 whole entry, species assumed): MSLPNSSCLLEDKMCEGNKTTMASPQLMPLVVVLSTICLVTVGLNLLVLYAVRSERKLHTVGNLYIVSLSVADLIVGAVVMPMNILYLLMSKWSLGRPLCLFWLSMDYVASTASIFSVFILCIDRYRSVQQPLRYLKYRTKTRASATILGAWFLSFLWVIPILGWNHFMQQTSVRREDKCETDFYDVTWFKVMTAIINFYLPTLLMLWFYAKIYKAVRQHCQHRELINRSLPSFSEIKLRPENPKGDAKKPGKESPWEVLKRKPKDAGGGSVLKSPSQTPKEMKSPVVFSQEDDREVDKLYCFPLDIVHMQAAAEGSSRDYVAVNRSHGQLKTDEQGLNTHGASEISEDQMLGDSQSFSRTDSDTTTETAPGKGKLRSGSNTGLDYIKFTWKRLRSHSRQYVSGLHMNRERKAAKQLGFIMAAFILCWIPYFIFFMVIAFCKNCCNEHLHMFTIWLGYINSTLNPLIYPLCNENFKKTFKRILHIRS

T1 sequence (P70174 whole entry): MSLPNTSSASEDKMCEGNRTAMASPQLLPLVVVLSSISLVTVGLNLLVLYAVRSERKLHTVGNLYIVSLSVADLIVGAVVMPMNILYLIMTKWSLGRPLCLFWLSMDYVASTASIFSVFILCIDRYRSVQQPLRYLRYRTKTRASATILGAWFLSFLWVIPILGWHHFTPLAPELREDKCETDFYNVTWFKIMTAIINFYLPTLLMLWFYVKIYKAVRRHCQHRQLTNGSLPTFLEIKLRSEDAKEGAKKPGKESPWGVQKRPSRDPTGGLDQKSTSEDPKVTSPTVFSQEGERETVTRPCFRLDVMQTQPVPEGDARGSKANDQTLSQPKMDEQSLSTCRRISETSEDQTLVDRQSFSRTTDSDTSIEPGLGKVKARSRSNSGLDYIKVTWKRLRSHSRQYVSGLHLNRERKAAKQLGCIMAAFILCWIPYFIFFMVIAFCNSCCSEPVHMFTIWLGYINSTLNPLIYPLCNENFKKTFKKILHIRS

| Structure (SMILES) | melting point | further results |
| --- | --- | --- |
| CC(C)(C)OC(=O)N1CCC(=C2c3ccccc3CCc3sc(C=CC(=O)O)cc32)CC1 [Compound 6, 3-[4-(1-tert-butoxycarbonylpiperidin-4-ylidene)-9,10-dihydro-4H-1-thiabenzo[f]azulen-2-yl]acrylic acid] | 186 °C (dec.) | – |
| CCOC(=O)N1CCC(=C2c3ccccc3CCc3sccc32)CC1 [Compound 1, ethyl 4-(9,10-dihydro-1-thiabenzo[f]-azulen-4-ylidene)piperidine-1-carboxylate] | 110 to 113 °C | – |
| CC(C)(C)OC(=O)N1CCC(=C2c3ccccc3C=Cc3sc(CCC(=O)O)cc32)CC1 [Compound 7, 3-[4-(1-tert-butoxycarbonylpiperidin-4-ylidene)-4H-1-thiabenzo[f]azulen-2-yl]propionic acid] | 172 °C (dec.) | – |
| CN1CCC(=C2c3ccccc3CCc3sc(Br)cc32)CC1 [Compound 11, 4-(2-bromo-9,10-dihydro-1-thiabenzo[f]-azulen-4-ylidene)-1-methylpiperidine] | 141 to 142 °C | – |
| CCOC(=O)C=Cc1cc2c(s1)CCc1ccccc1C2=C1CCN(C(=O)OCC)CC1 [Compound 8, ethyl 4-[2-(2-ethoxycarbonylvinyl)-9,10-dihydro-1-thiabenzo[f]azulen-4-ylidene]piperidine-1-carboxylate] | 90 to 93 °C | – |
| CCOC(=O)N1CCC(=C2c3ccccc3CCc3sc(C=CC(=O)O)cc32)CC1 [Compound 3, 3-[4-(1-ethoxycarbonylpiperidin-4-ylidene)-9,10-dihydro-4H-1-thiabenzo[f]azulen-2-yl]acrylic acid] | 228 °C (dec.) | – |
| O=C(O)C=Cc1cc2c(s1)CCc1ccccc1C2=C1CCNCC1 [Compound 4, 3-(4-piperidin-4-ylidene-9,10-dihydro-4H-1-thiabenzo[f]azulen-2-yl)acrylic acid] | 269 to 272 °C (dec.) | – |
| CCOC(=O)N1CCC(=C2c3ccccc3CCc3sc(C=O)cc32)CC1 [Compound 2, ethyl 4-(2-formyl-9,10-dihydro-1-thia-benzo[f]azulen-4-ylidene)piperidine-1-carboxylate] | 146 to 149 °C | – |
| O=C(O)CCc1cc2c(s1)C=Cc1ccccc1C2=C1CCNCC1 [Compound 5, 3-(4-piperidin-4-ylidene-4H-1-thiabenzo-[f]azulen-2-yl)propionic acid] | 254 °C (dec.) | intracerebral transmigration (intracerebral receptor): low intracerebral transmigration; antagonistic action to histamine H1 receptor (histamine H1 receptor): excellent antagonistic action; antihistaminic action (histamine H1 receptor): excellent antihistaminic action |
